According to US20020137929A1, “1 - (3-heterocyclylphenyl) isothiourea, -isourea, -guanidine and -amidine herbicidal agents” (Intellectual Property Department, BASF Aktiengesellschaft, priority 1998, published 2002):

Legend:
GALAP (Galium) = experiment: Postemergence herbicidal evaluation; assay type: in vivo, Galium aparine; conditions: for Herbicidal rating GALAP: postemergence
Method in brief: (§1)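 Rate range approx. 0.0156–0.500 kg/ha. Foliar application at 40 psi to ~2-week seedlings; surfactant 0.5% TWEEN 20 in 50/50 acetone/water. Evaluation 4–5 wk post-treatment by 0–9 visual injury score, means of replicate tests.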

[1] = test system: TRZAWR (Wheat, Winter, cv Riband); experiment: Postemergence herbicidal evaluation; assay type: in vivo, Triticum aestivum; conditions: for Herbicidal rating TRZAWR: postemergence
Method in brief: as §1

[2] = test system: ECHORC (Watergrass (Calif.)); experiment: Postemergence weed control under flooded paddy conditions; assay type: in vivo, Echinochloa oryzoides; conditions: postemergence weeds, rated 3 to 4 weeks after treatment
Method in brief: (§2)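 Injury ratings (0–9 scale covering stand, vigor, malformation, size, chlorosis and overall appearance versus control) were made three to four weeks after treatment. Test material, about 0.0313 to 0.500 kg/ha a.i. in 50/50 v/v aqueous/acetone, was added to flood water 1.5 to 3 cm deep over 3 to 5 cm weeds and 1.5 to 2.5 leaf rice.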

[3] = test system: IPOHE (Morningglory, Ivyleaf); experiment: Preemergence herbicidal evaluation; assay type: in vivo, Ipomoea hederacea; conditions: rated 4-5 weeks after treatment; for IPOHE rating: preemergence, 0-9 scale
Method in brief: (§3)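 Test compound, dissolved in aqueous acetone, was sprayed over planted soil cups at an equivalent of about 0.0156 to 0.500 kg/ha; seeds had been mixed with potting soil. Greenhouse growth followed, with visual 0-9 scoring of injury at four to five weeks.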

ABUTH (Velvetleaf) = experiment: Preemergence herbicidal evaluation; assay type: in vivo, Abutilon theophrasti; conditions: rated 4-5 weeks after treatment; for ABUTH rating: preemergence, 0-9 scale
Method in brief: as §3

MOOVA (Monochoria) = experiment: Preemergence weed control under flooded paddy conditions; assay type: in vivo, Monochoria vaginalis; conditions: rated 3-4 weeks after treatment
Method in brief: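 Silt loam, seeds in top 0.5 cm; flood held 1.5-3 cm; test cpd as acetone/water 50/50 into flood water, ~0.0313-0.500 kg/ha a.i.; greenhouse 3-4 wk; visual 0-9 score vs control.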

ECHCG (Barnyardgrass) = experiment: Preemergence herbicidal evaluation; assay type: in vivo, Echinochloa crus-galli; conditions: rated 4-5 weeks after treatment; for ECHCG rating: preemergence, 0-9 scale
Method in brief: as §3

ZEAMX (Corn, Field) = experiment: Preemergence herbicidal evaluation; assay type: in vivo, Zea mays; conditions: rated 4-5 weeks after treatment; for ZEAMX rating: preemergence, 0-9 scale
Method in brief: as §3

SETVI (Foxtail, Green) [4] = experiment: Postemergence herbicidal evaluation; assay type: in vivo, Setaria viridis; conditions: for Herbicidal rating SETVI: postemergence
Method in brief: as §1

[5] = test system: SAGPY (Arrowhead (Pygmaea)); experiment: Postemergence weed control under flooded paddy conditions; assay type: in vivo, Sagittaria pygmaea; conditions: postemergence weeds, rated 3 to 4 weeks after treatment
Method in brief: as §2

[6] = test system: ECHORC (Watergrass (Calif.)); experiment: Preemergence weed control under flooded paddy conditions; assay type: in vivo, Echinochloa oryzoides; conditions: rated 3-4 weeks after treatment
Method in brief: (§4)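 Visual injury scored 0-9 against control three to four weeks post-treatment, greenhouse-grown. Application: acetone/water (50/50) solutions dosed directly into flood water (1.5-3 cm over silt loam, planted top 0.5 cm), roughly 0.0313 to 0.500 kg/ha active ingredient.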

CYPIR (Rice Flatsedge) = experiment: as above; assay type: in vivo, Cyperus iria; conditions: rated 3-4 weeks after treatment
Method in brief: as §4

[7] = test system: IPOHE (Morningglory, Ivyleaf); experiment: Postemergence herbicidal evaluation; assay type: in vivo, Ipomoea hederacea; conditions: for Herbicidal rating IPOHE: postemergence
Method in brief: as §1

SETVI (Foxtail, Green) [8] = experiment: Preemergence herbicidal evaluation; assay type: in vivo, Setaria viridis; conditions: rated 4-5 weeks after treatment; for SETVI rating: preemergence, 0-9 scale
Method in brief: as §3

C=CCN1C(=O)C(CC(=O)NS(=O)(=O)CC)SC1=Nc1cc(-n2c(=O)cc(C(F)(F)F)n(C)c2=O)c(F)cc1Cl (centres unmarked) [Compound 104, 3-Allyl-2-{{2-chloro-5-[3,6-dihydro-3-methyl-2,6-dioxo-4-(trifluoromethyl)-1(2H)-pyrimidinyl]-4-fluorophenyl}imino}-N-(ethylsulfonyl)-4-oxo-5-thiazolidineacetamide]
Herbicidal rating GALAP (GALAP (Galium); rate 0.0156 kg/ha): 0.0 | Herbicidal rating GALAP (GALAP (Galium); rate 0.0313 kg/ha): 0.0 | Herbicidal rating GALAP (GALAP (Galium); rate 0.0625 kg/ha): 1.0 | Herbicidal rating GALAP (GALAP (Galium); rate 0.1250 kg/ha): 2.0 | Herbicidal rating TRZAWR ([1]; rate 0.0156 kg/ha): 3.0 | Herbicidal rating TRZAWR ([1]; rate 0.0313 kg/ha): 3.0 | Herbicidal rating TRZAWR ([1]; rate 0.0625 kg/ha): 4.0 | Herbicidal rating TRZAWR ([1]; rate 0.1250 kg/ha): 4.0 | Herbicidal rating ECHORC ([2]; Rate 0.0313 kg/ha): 4.0 | Herbicidal rating ECHORC ([2]; Rate 0.0625 kg/ha): 5.0 | Herbicidal rating ECHORC ([2]; Rate 0.1250 kg/ha): 6.0 | Herbicidal rating ECHORC ([2]; Rate 0.2500 kg/ha): 6.0 | IPOHE rating ([3]; 0.0625 kg/ha): 0.0 | IPOHE rating ([3]; 0.1250 kg/ha): 0.0 | IPOHE rating ([3]; 0.2500 kg/ha): 3.0 | IPOHE rating ([3]; 0.5000 kg/ha): 9.0 | ABUTH rating (ABUTH (Velvetleaf); 0.0625 kg/ha): 3.0 | ABUTH rating (ABUTH (Velvetleaf); 0.1250 kg/ha): 8.0 | ABUTH rating (ABUTH (Velvetleaf); 0.2500 kg/ha): 9.0 | ABUTH rating (ABUTH (Velvetleaf); 0.5000 kg/ha): 9.0 | MOOVA herbicidal effect rating (MOOVA (Monochoria); 0.0313 kg/ha): 7.0 | MOOVA herbicidal effect rating (MOOVA (Monochoria); 0.0625 kg/ha): 9.0 | MOOVA herbicidal effect rating (MOOVA (Monochoria); 0.1250 kg/ha): 9.0 | MOOVA herbicidal effect rating (MOOVA (Monochoria); 0.2500 kg/ha): 9.0 | ECHCG rating (ECHCG (Barnyardgrass); 0.0625 kg/ha): 0.0 | ECHCG rating (ECHCG (Barnyardgrass); 0.1250 kg/ha): 0.0 | ECHCG rating (ECHCG (Barnyardgrass); 0.2500 kg/ha): 1.0 | ECHCG rating (ECHCG (Barnyardgrass); 0.5000 kg/ha): 1.0 | ZEAMX rating (ZEAMX (Corn, Field); 0.0625 kg/ha): 0.0 | ZEAMX rating (ZEAMX (Corn, Field); 0.1250 kg/ha): 0.0 | ZEAMX rating (ZEAMX (Corn, Field); 0.2500 kg/ha): 0.0 | ZEAMX rating (ZEAMX (Corn, Field); 0.5000 kg/ha): 2.0 | Herbicidal rating SETVI (SETVI (Foxtail, Green) [4]; rate 0.0156 kg/ha): 0.0 | Herbicidal rating SETVI (SETVI (Foxtail, Green) [4]; rate 0.0313 kg/ha): 0.0 | Herbicidal rating SETVI (SETVI (Foxtail, Green) [4]; rate 0.0625 kg/ha): 3.0 | Herbicidal rating SETVI (SETVI (Foxtail, Green) [4]; rate 0.1250 kg/ha): 4.0 | Herbicidal rating SAGPY ([5]; Rate 0.0313 kg/ha): 6.0 | Herbicidal rating SAGPY ([5]; Rate 0.0625 kg/ha): 9.0 | Herbicidal rating SAGPY ([5]; Rate 0.1250 kg/ha): 9.0 | Herbicidal rating SAGPY ([5]; Rate 0.2500 kg/ha): 9.0 | ECHORC herbicidal effect rating ([6]; 0.0313 kg/ha): 4.0 | ECHORC herbicidal effect rating ([6]; 0.0625 kg/ha): 5.0 | ECHORC herbicidal effect rating ([6]; 0.1250 kg/ha): 6.0 | ECHORC herbicidal effect rating ([6]; 0.2500 kg/ha): 6.0 | CYPIR herbicidal effect rating (CYPIR (Rice Flatsedge); 0.0313 kg/ha): 5.0 | CYPIR herbicidal effect rating (CYPIR (Rice Flatsedge); 0.0625 kg/ha): 9.0 | CYPIR herbicidal effect rating (CYPIR (Rice Flatsedge); 0.1250 kg/ha): 9.0 | CYPIR herbicidal effect rating (CYPIR (Rice Flatsedge); 0.2500 kg/ha): 9.0 | Herbicidal rating IPOHE ([7]; rate 0.0156 kg/ha): 9.0 | Herbicidal rating IPOHE ([7]; rate 0.0313 kg/ha): 9.0 | Herbicidal rating IPOHE ([7]; rate 0.0625 kg/ha): 9.0 | Herbicidal rating IPOHE ([7]; rate 0.1250 kg/ha): 9.0 | SETVI rating (SETVI (Foxtail, Green) [8]; 0.0625 kg/ha): 0.0 | SETVI rating (SETVI (Foxtail, Green) [8]; 0.1250 kg/ha): 0.0 | SETVI rating (SETVI (Foxtail, Green) [8]; 0.2500 kg/ha): 0.0 | SETVI rating (SETVI (Foxtail, Green) [8]; 0.5000 kg/ha): 6.0

Cn1c(C(F)(F)F)cc(=O)n(-c2cc(/N=C3/SC(CC(=O)O)C(=O)N3CC(=O)O)c(Cl)cc2F)c1=O (centres unmarked) [Compound 61, 2-{{2-Chloro-5-[3,6-dihydro-3-methyl-2,6-dioxo-4-(trifluoromethyl)-1(2H)-pyrimidinyl]-4-fluorophenyl}imino}-4-oxo-3,5-thiazolidinediacetic acid]
Postemergence herbicidal rating GALAP (GALAP (Galium); Rate 0.0158 kg/ha): 0.0 | Postemergence herbicidal rating GALAP (GALAP (Galium); Rate 0.0315 kg/ha): 0.0 | Postemergence herbicidal rating GALAP (GALAP (Galium); Rate 0.0630 kg/ha): 0.0 | Postemergence herbicidal rating TRZAWR ([1]; Rate 0.0158 kg/ha): 0.5 | Postemergence herbicidal rating TRZAWR ([1]; Rate 0.0315 kg/ha): 0.5 | Postemergence herbicidal rating TRZAWR ([1]; Rate 0.0630 kg/ha): 1.5 | Herbicidal rating ECHORC ([2]; Rate 0.2500 kg/ha): 0.0 | Preemergence herbicidal rating IPOHE ([3]; rate 0.1250 kg/ha): 0.0 | Preemergence herbicidal rating IPOHE ([3]; rate 0.2500 kg/ha): 0.0 | Preemergence herbicidal rating ABUTH (ABUTH (Velvetleaf); rate 0.1250 kg/ha): 0.0 | Preemergence herbicidal rating ABUTH (ABUTH (Velvetleaf); rate 0.2500 kg/ha): 1.0 | MOOVA herbicidal effect rating (MOOVA (Monochoria); 0.2500 kg/ha): 0.0 | Preemergence herbicidal rating ECHCG (ECHCG (Barnyardgrass); rate 0.1250 kg/ha): 0.0 | Preemergence herbicidal rating ECHCG (ECHCG (Barnyardgrass); rate 0.2500 kg/ha): 0.0 | Preemergence herbicidal rating ZEAMX (ZEAMX (Corn, Field); rate 0.1250 kg/ha): 0.0 | Preemergence herbicidal rating ZEAMX (ZEAMX (Corn, Field); rate 0.2500 kg/ha): 1.0 | Postemergence herbicidal rating SETVI (SETVI (Foxtail, Green) [4]; Rate 0.0158 kg/ha): 0.0 | Postemergence herbicidal rating SETVI (SETVI (Foxtail, Green) [4]; Rate 0.0315 kg/ha): 0.0 | Postemergence herbicidal rating SETVI (SETVI (Foxtail, Green) [4]; Rate 0.0630 kg/ha): 2.0 | Herbicidal rating SAGPY ([5]; Rate 0.2500 kg/ha): 0.0 | ECHORC herbicidal effect rating ([6]; 0.2500 kg/ha): 0.0 | CYPIR herbicidal effect rating (CYPIR (Rice Flatsedge); 0.2500 kg/ha): 0.0 | Postemergence herbicidal rating IPOHE ([7]; Rate 0.0158 kg/ha): 1.0 | Postemergence herbicidal rating IPOHE ([7]; Rate 0.0315 kg/ha): 2.0 | Postemergence herbicidal rating IPOHE ([7]; Rate 0.0630 kg/ha): 1.0 | Preemergence herbicidal rating SETVI (SETVI (Foxtail, Green) [8]; rate 0.1250 kg/ha): 0.0 | Preemergence herbicidal rating SETVI (SETVI (Foxtail, Green) [8]; rate 0.2500 kg/ha): 1.0
